From patent US20180133331A1, “Site-Specific DNA-Doxorubicin Conjugates Display Enhanced Cytotoxicity to Breast Cancer Cells” (priority 2014, published 2018)

Test system: Salmon Sperm DNA
Assay: Dox transfer from DCH to salmon sperm DNA (fluorescence quenching, stability of Dox:hairpin conjugate)
Type: physicochemical
Conditions: 100-fold excess spDNA (w/w), 37° C.
Experimental: Dox transfer from DCH: Samples of 2.5 μM (approximately 2 μg in 100 uL) DCH, doxorubicin, or hairpin+doxorubicin were prepared in DPBS with or without a 100-fold by weight (200 μg) excess of Salmon Sperm DNA and incubated at 37° C. Fluorescence intensity was determined by Typhoon-9210 variable mode imager with excitation set to 532 nm and the emission filter at 610 nm.
Stability of Dox:Hairpin Conjugate. It was hypothesized that covalent binding of Dox would allow for the Dox-conjugated hairpin to serve as a delivery vehicle with improved pharmacological properties and reduced systemic toxicities relative to conventional Dox. In order for the hairpin to act as an efficient delivery vehicle, Dox must remain stably bound under physiological conditions, but also undergo intracellular release and transfer to genomic DNA. […] Using the difference in fluorescence between hairpin-bound Dox and Dox intercalated into DNA, the half-life of the Dox-hairpin bond was measured. An assay was developed to quantify the transfer of Dox from the hairpin to genomic DNA under physiologic conditions. This assay is based on the difference in fluorescence of Dox in the context of the hairpin conjugate relative to genomic DNA. […] Reactions were incubated at 37° C. with fluorescence quenching measured over 48 h. […]

fluorescence quenching following addition of spDNA: fully quenched within one hour
SMILES: COc1cccc2c1C(=O)c1c(O)c3c(c(O)c1C2=O)C[C@@](O)(C(=O)CO)C[C@@H]3O[C@H]1C[C@H](N)[C@H](O)[C@H](C)O1 [Dox, Doxorubicin]
